Experimental data as given in patent publication US20090012088A1 (priority 2005, published 2009).
“Also recorded” adds a separate entry of the source. Read-outs that look alike come from different tables or passages of the source. One block for each compound: values may come before it.

Key:
PARG [1] = assay: Table 2: small molecules tested for PARG inhibition activity (relative to PIP-1); type: biochemical
U-937 cells = assay: Protection against H2O2 treatment of U-937 cells (cell survival); type: cell-based; conditions: FIG. 13
Procedure: We have made multiple derivatives of PIP-1; these compounds are shown below in Table 2 and in FIG. 11 and labeled Structures 1-39. The neuroprotective effects of structures 1-26 were tested in the cellular assay and compared to the neuroprotective effect of PIP-1 (FIG. 13).
PIP-1 and structures 1-26 were screened for protection against H2O2 treatment of U-937 cells FIG. 13.

PARG [2] = target: T1, PARG (Homo sapiens, UniProt Q86W56); conditions: 32P-PAR assay; KM of PAR 1.7 μM; cited from earlier work
T1 sequence (Q86W56 whole entry, species assumed): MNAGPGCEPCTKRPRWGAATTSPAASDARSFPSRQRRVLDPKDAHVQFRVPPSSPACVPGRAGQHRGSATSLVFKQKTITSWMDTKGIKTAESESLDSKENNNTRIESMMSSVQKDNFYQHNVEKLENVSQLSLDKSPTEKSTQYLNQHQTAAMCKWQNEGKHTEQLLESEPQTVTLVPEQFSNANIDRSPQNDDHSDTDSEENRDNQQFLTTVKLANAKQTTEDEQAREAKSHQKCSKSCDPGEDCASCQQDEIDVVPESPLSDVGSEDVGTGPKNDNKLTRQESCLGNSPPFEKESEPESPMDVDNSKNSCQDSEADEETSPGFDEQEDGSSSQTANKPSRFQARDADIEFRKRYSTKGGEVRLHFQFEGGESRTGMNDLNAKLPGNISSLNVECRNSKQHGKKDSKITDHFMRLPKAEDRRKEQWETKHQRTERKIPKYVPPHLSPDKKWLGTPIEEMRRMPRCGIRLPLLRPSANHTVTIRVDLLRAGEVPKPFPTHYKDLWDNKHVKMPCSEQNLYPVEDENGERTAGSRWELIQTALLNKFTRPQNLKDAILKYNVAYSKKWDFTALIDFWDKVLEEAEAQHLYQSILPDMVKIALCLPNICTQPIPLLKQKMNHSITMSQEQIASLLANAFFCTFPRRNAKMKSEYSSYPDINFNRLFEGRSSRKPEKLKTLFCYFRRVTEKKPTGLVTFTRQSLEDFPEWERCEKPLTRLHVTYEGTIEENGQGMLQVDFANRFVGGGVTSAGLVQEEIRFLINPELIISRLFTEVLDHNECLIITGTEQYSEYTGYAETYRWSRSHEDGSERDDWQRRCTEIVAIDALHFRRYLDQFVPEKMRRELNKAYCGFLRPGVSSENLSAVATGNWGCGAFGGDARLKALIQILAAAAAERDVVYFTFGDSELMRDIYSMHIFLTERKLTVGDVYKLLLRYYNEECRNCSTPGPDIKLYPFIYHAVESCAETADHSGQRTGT

[3] = system: neuronally differentiated PC-12 cells; assay: Protection from rotenone induced toxicity in neuronally differentiated PC-12 cells; type: cell-based
Procedure: Rotenone is a complex I poison and is widely used in cell culture and animal models of PD. (20, 31, 32) To determine if PIP-1 protects cells from rotenone insult, PC-12 cells are neuronally differentiated (with neuronal growth factor β for 10 days) and then treated with 10 μM rotenone and a range of PIP-1 concentrations. After 72 hours, cell death is assessed using propidium iodide staining as measured by flow cytometry. […] To determine the features on PIP-1 that are important for PARG inhibition and cell protection, three derivatives are constructed that lacked key functionality (see FIG. 19 compounds labeled 3, 4 and 5).
Cell culture conditions: HL-60 and SK-N-SH cells are grown in RPMI 1640 media supplemented with 10% FBS and PC-12 cells are grown in RPMI 1640 media supplemented with 10% HS and 5% FBS. All cell lines are incubated at 37° C. in a 5% CO2, 95% air atmosphere. HL-60 cells are split every two to three days as needed and SK-N-SH cells are split when they reach approximately 90% confluency at a 1:6 ratio. SK-N-SH cells are differentiated by adding media containing 10 μM retinoic acid (in DMSO). Media is replaced every other day and cells are differentiated for a total of 12 days. PC-12 cells are differentiated by adding media containing 25 ng/mL Neuronal Growth Factro β. Media is replaced every other day and cells are differentiated for a total of 10 days. Differentiation is observed by microscopy.
Protection of Rotenone and MPP^+ induced toxicity in PC-12 and SK-N-SH cells: SK-N-SH and PC-12 cells are neuronally differentiated as described above. 10 μM rotenone, 10 μM MPP^+ and various concentrations of PIP-1 or its derivatives are added to the cells and incubated for 72 h. The cells are then washed in PBS and the viability is determined by adding propidium iodide to 1 μg/mL and measuring the fluorescent intensity of each cell by flow cytometry.

PARG [4] = target: PARG (Bos taurus, UniProt O02776); assay: Inhibition of PARG activity in vitro (quantitation of free ADP-ribose with benzamidine, fluorescence); type: biochemical; design: purchased Biomol
Sequence of PARG (Bos taurus, UniProt O02776) (O02776 whole entry): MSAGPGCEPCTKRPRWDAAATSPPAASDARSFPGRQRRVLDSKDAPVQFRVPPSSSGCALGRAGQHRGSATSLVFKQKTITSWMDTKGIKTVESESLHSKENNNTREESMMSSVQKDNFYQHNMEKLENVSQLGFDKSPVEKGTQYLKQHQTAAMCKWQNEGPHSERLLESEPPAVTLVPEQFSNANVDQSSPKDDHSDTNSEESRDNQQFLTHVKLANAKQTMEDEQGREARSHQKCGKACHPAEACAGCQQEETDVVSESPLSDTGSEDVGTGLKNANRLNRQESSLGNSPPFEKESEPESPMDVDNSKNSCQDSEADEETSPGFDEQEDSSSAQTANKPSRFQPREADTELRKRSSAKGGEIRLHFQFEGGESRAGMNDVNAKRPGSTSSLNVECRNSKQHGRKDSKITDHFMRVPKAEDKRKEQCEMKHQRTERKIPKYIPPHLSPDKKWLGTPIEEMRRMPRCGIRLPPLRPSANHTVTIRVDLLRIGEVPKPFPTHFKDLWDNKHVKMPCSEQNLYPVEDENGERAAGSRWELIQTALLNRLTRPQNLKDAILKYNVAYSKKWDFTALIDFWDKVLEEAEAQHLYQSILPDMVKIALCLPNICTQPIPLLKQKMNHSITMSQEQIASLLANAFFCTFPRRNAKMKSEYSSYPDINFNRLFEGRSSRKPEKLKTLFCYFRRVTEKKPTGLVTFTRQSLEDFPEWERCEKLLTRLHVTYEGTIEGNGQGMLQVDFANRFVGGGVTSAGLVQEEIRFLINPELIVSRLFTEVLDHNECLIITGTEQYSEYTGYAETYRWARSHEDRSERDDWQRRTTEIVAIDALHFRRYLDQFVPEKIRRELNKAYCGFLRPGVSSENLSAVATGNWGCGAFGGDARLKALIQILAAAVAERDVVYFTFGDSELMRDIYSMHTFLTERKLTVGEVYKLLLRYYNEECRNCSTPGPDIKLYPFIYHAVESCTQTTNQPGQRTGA
Procedure: PARG assay: Production and purification of PAR. PARP-1 (20 units) is added to 900 μL of PARP assay buffer containing 1 mM NAD^+ and 22.5 μg activated DNA. This reaction was run at 37° C. for 30 min and stopped by the addition of 300 μL of cold 100% trichloroacetic acid. The proteins thus precipitated are collected by centrifugation at 18,000 g for 30 min at 4° C. After removal of the supernatant, 1 mL of 1 M NaOH and 100 mM EDTA are added to the pellet and incubated for 2 h at 37° C. to cleave the PAR from the PARP protein acceptor. Then 9 mL of PAR buffer A (250 mM ammonium acetate, 6 M guanidinium HCl, 10 mM EDTA, pH 9.0) is added to the PAR and applied to a PROSEP-PB (Millipore) phenyl boronate column that is pre-equilibrated with PAR buffer A. The flowthrough is then reapplied to the column to ensure that all PAR is bound. The column is then washed with 25 mL of PAR buffer A, followed by 10 mL of PAR buffer B (1 M ammonium acetate and 1 mM EDTA, pH 9.0). The bound PAR is eluted with 4 mL of water collected in 1-mL fractions. Fractions containing PAR are pooled and concentrated. The concentration, measured as monomer, is determined by measuring the absorbance at 258 nm. PAR has an extinction coefficient of 13,500 cm^−1 at 258 nm.
Inhibition of PARG Activity: To determine the PARG IC50 values of the compounds, 39 μL of a 25.6 μM solution of PAR in PARG assay (50 mM KCl, 50 mM KH2PO4, pH 7.2) buffer and 1 μL of the compounds at varying concentrations (in PARG assay buffer) are added into the wells of a 384-well plate. The reaction is initiated by the addition of 10 μL of PARG (Biomol) at a concentration of 1 ng/ml (in PARG assay buffer), bringing the final concentration to […] and 20 μM PAR with varying concentrations of compounds in a total volume of 50 μL. The plate is incubated for 20 min at room temperature. The amount of free ADP-ribose hemiacetals is determined by the addition of 5 μL of an aqueous 8.5M KOH solution and 5 μL of an aqueous 850 μM benzamidine solution to each well. The plate is then incubated for 10 min in an oven set at 110° C. The plate is allowed to cool and then read on a Criterion Analyst AD with an excitation of 360 nm and an emission of 445 nm.

[5] = system: NAD^+ depletion in HL-60 cell lysate; assay: Whole cell assay screen: NAD+ depletion in H2O2-activated HL-60 cell lysate; type: cell-based
Procedure: To identify a non-toxic, non-DNA intercalating, cell permeable small molecule inhibitor of PARG, a high-throughput screen is devised. Given the severe challenges in isolating enough of the PAR substrate for an in vitro screen directly for PARG inhibition, we develop a primary screen that utilizes cell lysates and, in particular, mammalian cell lysates. In this assay, HL-60 cells are treated with H2O2 to damage their DNA (which activates PARP-1) and then lyse the cells. In individual wells of a 384-well plate, this cell lysate is incubated with 22,000 different small molecules from an in-house compound collection; these compounds are either purchased (from ChemBridge Corp.) or collected from various sources at the University of Illinois. (28) NAD^+ levels are measured using a fluorescent method based on the chemical conversion of NAD^+ to a fluorescent product (29, 30) (FIG. 14A). The amount of NAD^+ consumed in each well is monitored, and any compounds that prevent NAD^+ consumption are classified “hits” in this primary screen.
Library screen: 12.5 μL of Lysing PARP buffer (50 mM Tris, 10 mM MgCl2, pH 8.0, 1% Triton X-100) containing 100 μM NAD^+ is added to each well of a 384-well plate. Library compounds at 10 mM in DMSO are transferred using a 384-well pin transfer device that delivers 0.1 μL. HL-60 cells are spun down at 200 g for 5 min. and resuspended in Lysing PARP buffer to a concentration of 8×10^6 cells/mL. 10 μL of a 30% H2O2 solution is added per mL of cells. 12.5 μL of the activated cell lysate is added to the plates. The plates are incubated for 60 min. at 37° C. The concentration of NAD^+ is then determined using a fluorescent assay^1. 10 μL of a 2 M KOH solution and 10 μL of a 20% acetophenone solution (in ethanol) is added to each well. The plate is then incubated at 4° C. for 10 min. 45 μL of a 88% formic acid solution was added to each well. The plate was then incubated for 5 min. in a 110° C. oven. Once the plate cools, the fluorescent intensity of each well is determined on a Criterion Analyst AD (Molecular Devices) with an excitation of 360 nm and an emission of 445 nm.

PARG [6] = target: T1, PARG; conditions: tannins; read-out: in vitro IC50 for PARG; cited from earlier work

Compound: 4-Amino-5-dimethylamino-2-phenyl-2H-pyridazin-3-one [PIP-1]
- Activity (PARG [1]): moderate
- Protection of U-937 cells treated with H2O2 (activity compared to PIP-1) (U-937 cells): low or no activity

Compound: CCCCCCNc1c(Cl)cnn(-c2ccccc2)c1=O [Structure 7]
- Activity (PARG [1]): low

Compound: Nc1c(Cl)cnn(-c2ccccc2)c1=O [Structure 8]
- Activity (PARG [1]): low

Compound: CC(=O)Nc1c(Cl)cnn(-c2ccccc2)c1=O [Structure 9]
- Activity (PARG [1]): low

Compound: CC(=O)N(C(C)=O)c1c(Cl)cnn(-c2ccccc2)c1=O [Structure 10]
- Activity (PARG [1]): low

Compound: CCN(CC)c1cnn(-c2ccccc2)c(=O)c1N [Structure 11]
- Activity (PARG [1]): good
- Protection of U-937 cells treated with H2O2 (activity compared to PIP-1) (U-937 cells): activity similar or better than PIP-1

Compound: CCCN(CCC)c1cnn(-c2ccccc2)c(=O)c1N [Structure 12]
- Activity (PARG [1]): good
- Protection of U-937 cells treated with H2O2 (activity compared to PIP-1) (U-937 cells): activity similar or better than PIP-1

Compound: CCCCN(CCCC)c1cnn(-c2ccccc2)c(=O)c1N [Structure 13]
- Activity (PARG [1]): good
- Protection of U-937 cells treated with H2O2 (activity compared to PIP-1) (U-937 cells): activity similar or better than PIP-1

Compound: CCCCN(CCCC)c1cnn(-c2ccccc2)c(=O)c1NC(C)=O [Structure 14]
- Activity (PARG [1]): low
- Protection of U-937 cells treated with H2O2 (activity compared to PIP-1) (U-937 cells): low or no activity

Compound: CCCCN(CC)c1cnn(-c2ccccc2)c(=O)c1N [Structure 15]
- Activity (PARG [1]): moderate
- Protection of U-937 cells treated with H2O2 (activity compared to PIP-1) (U-937 cells): moderate activity

Compound: CCCCN(CC)c1cnn(-c2ccccc2)c(=O)c1NC(C)=O [Structure 16]
- Activity (PARG [1]): low
- Protection of U-937 cells treated with H2O2 (activity compared to PIP-1) (U-937 cells): low or no activity

Compound: Nc1c(N2CCCC2)cnn(-c2ccccc2)c1=O [Structure 17]
- Activity (PARG [1]): moderate
- Protection of U-937 cells treated with H2O2 (activity compared to PIP-1) (U-937 cells): moderate activity

Compound: CC(=O)Nc1c(N2CCCC2)cnn(-c2ccccc2)c1=O [Structure 18]
- Activity (PARG [1]): moderate
- Protection of U-937 cells treated with H2O2 (activity compared to PIP-1) (U-937 cells): moderate activity

Compound: Nc1c(N2CCCCC2)cnn(-c2ccccc2)c1=O [Structure 19]
- Activity (PARG [1]): good
- Protection of U-937 cells treated with H2O2 (activity compared to PIP-1) (U-937 cells): activity similar or better than PIP-1

Compound: CC(=O)Nc1c(N2CCCCC2)cnn(-c2ccccc2)c1=O [Structure 20]
- Activity (PARG [1]): good
- Protection of U-937 cells treated with H2O2 (activity compared to PIP-1) (U-937 cells): activity similar or better than PIP-1

Compound: Nc1c(N2CCOCC2)cnn(-c2ccccc2)c1=O [Structure 21]
- Activity (PARG [1]): good
- Protection of U-937 cells treated with H2O2 (activity compared to PIP-1) (U-937 cells): activity similar or better than PIP-1

Compound: CC(=O)Nc1c(N2CCOCC2)cnn(-c2ccccc2)c1=O [Structure 22]
- Activity (PARG [1]): moderate
- Protection of U-937 cells treated with H2O2 (activity compared to PIP-1) (U-937 cells): moderate activity

Compound: CC(=O)Nc1c(N(C)C)cnn(-c2ccccc2)c1=O [Structure 24]
- Activity (PARG [1]): moderate
- Protection of U-937 cells treated with H2O2 (activity compared to PIP-1) (U-937 cells): moderate activity

Compound: CCN(CC)c1cnn(-c2ccccc2)c(=O)c1NC(C)=O [Structure 25]
- Activity (PARG [1]): moderate
- Protection of U-937 cells treated with H2O2 (activity compared to PIP-1) (U-937 cells): moderate activity

Compound: CCCN(CCC)c1cnn(-c2ccccc2)c(=O)c1NC(C)=O [Structure 26]
- Activity (PARG [1]): low
- Protection of U-937 cells treated with H2O2 (activity compared to PIP-1) (U-937 cells): low or no activity

Compound: CN(C)c1cnn(C)c(=O)c1N [Structure 39]
- Activity (PARG [1]): low

Compound: CCN(CC)CCOc1ccc2c(c1)C(=O)c1cc(OCCN(CC)CC)ccc1-2 [Tilorone]
- Ki (PARG [2]): ~7 µM

Compound: CN(C)c1ccn(-c2ccccc2)c(=O)c1N [compound 4, 3-Amino-4-dimethylamino-1-phenyl-1H-pyridin-2-one]
- Protection of rotenone-treated neuronally differentiated PC-12 cells (in words) ([3]; listed as lactam 4): virtually identical PARG inhibition and cell protection properties as PIP-1; also recorded: protect
- PARG inhibition in vitro (in words) (PARG [4]; listed as lactam 4): virtually identical PARG inhibition and cell protection properties as PIP-1; also recorded: inhibit PARG activity in vitro
- Inhibition of NAD+ depletion in the whole cell assay [5]: inhibit NAD^+ depletion

- PARG inhibition in vitro (in words) (PARG [4]): inactive
Compound: CN(C)c1cnn(C)c(=O)c1N [compound 6, 4-Amino-5-dimethylamino-2-methyl-2H-pyridazin-3-one]
- Protection of rotenone-treated neuronally differentiated PC-12 cells (in words) [3]: inactive
- Protection of rotenone-treated neuronally differentiated PC-12 cells (in words) ([3]; listed as analogue 6): do not protect
- PARG inhibition in vitro (in words) (PARG [4]; listed as analogue 6): do not inhibit NAD^+ depletion or PARG activity
- Inhibition of NAD+ depletion in the whole cell assay [5]: do not inhibit NAD^+ depletion

Compound: O=c1c(Cl)c(O)cnn1-c1ccccc1 [entry 3, reference compound]
- Activity (PARG [1]): low
- Protection of U-937 cells treated with H2O2 (activity compared to PIP-1) (U-937 cells): low or no activity

Compound: CCOc1ccc2nc3cc(N)ccc3c(N)c2c1 [ethacridine]
- Ki (PARG [2]): < 7 µM

Compound: Nc1ccc2cc3ccc(N)cc3nc2c1 [profavine]
- Ki (PARG [2]): 36 µM

Compound: Oenothein B
- IC50 (PARG [6]): 3.8 µM
